Reference: ChEMBL document CHEMBL5346934 (J Med Chem, 2023)

How the values were obtained:
Vaccinia virus [1] = assay: Antiviral activity against Vaccinia virus infected in African green monkey CV-1 cells assessed as reduction in virus-induced cytopathic effect incubated for 5 days by colorimetric analysis; format: functional, organism-based; conditions: Orthopoxvirus vaccinia, CV-1, 120 h
Vaccinia virus [2] = assay: Antiviral activity against Vaccinia virus IHD-J infected in BSC40 cells assessed as reduction in plaque formation measured after 72 hrs by crystal violet staining based analysis; format: functional, organism-based; conditions: Orthopoxvirus vaccinia, BSC-40, 72 h
Cowpox virus [3] = assay: Antiviral activity against Cowpox virus infected in Vero cells measured after 4 days by colorimetric assay; format: functional, organism-based; conditions: 96 h
Vaccinia virus [4] = assay: Antiviral activity against Vaccinia virus infected in African green monkey Vero cells assessed as reduction virus induced cytopathic effect incubated for 24 hrs by MTT assay; format: functional, organism-based; conditions: Orthopoxvirus vaccinia
Vaccinia virus [5] = assay: Antiviral activity against Vaccinia virus Copenhagen infected in human HFF cells assessed as assessed as reduction in virus-induced cytopathic effect incubated for 7 days by microscopic analysis; format: functional, organism-based; conditions: Orthopoxvirus vaccinia, 168 h
Vaccinia virus [6] = assay: Antiviral activity against Vaccinia virus infected in African green monkey BSC-1 cells; format: functional, organism-based, Orthopoxvirus vaccinia; conditions: Orthopoxvirus vaccinia, BSC-1
Vaccinia virus [7] = assay: Antiviral activity against Vaccinia virus VG9 infected in African green monkey BSC-1 cells; format: functional, organism-based, Orthopoxvirus vaccinia; conditions: Orthopoxvirus vaccinia, VG9, BSC-1
Ectromelia virus = assay: Antiviral activity against ectromelia virus K-1 infected in Vero cells measured after 4 days by colorimetric assay; format: functional, organism-based; conditions: K-1, Vero, 96 h
Cowpox virus [8] = assay: Antiviral activity against Cowpox virus Grishak infected in African green monkey Vero cells measured after 4 days by colorimetric assay; format: functional, organism-based; conditions: 96 h
Vaccinia virus [9] = assay: Antiviral activity against Vaccinia virus Copenhagen infected in African green monkey Vero cells measured after 4 days by colorimetric assay; format: functional, organism-based; conditions: Orthopoxvirus vaccinia, 96 h
HEL = assay: Cytotoxicity against human HEL cells assessed as reduction in cell growth; format: functional
Vaccinia virus [10] = assay: Antiviral activity against Vaccinia virus infected in human HEL cells; format: functional, organism-based; conditions: Orthopoxvirus vaccinia

`CO[C@H]1[C@H](O)[C@H](O[C@H]2CC[C@@]3(C)[C@H](CC[C@@H]4[C@@H]3CC[C@]3(C)[C@@H](C5=CC(=O)OC5)CC[C@]43O)C2)O[C@@H](C)[C@@H]1O` [NERIIFOLIN] was tested, and the EC50 (Vaccinia virus [1]) was 5000 nM.

For `Cc1nn(C)c(C)c1CCOc1c(-c2ccc3c(c2)c(CN(C)C)nn3C)ccc(F)c1F`, the EC50 (Vaccinia virus [2]) was 130 nM.

`Nc1ccn(C[C@@H](CO)OCP(=O)(O)O)c(=O)n1` [CIDOFOVIR ANHYDROUS] gave an EC50 (Cowpox virus [3]) of 44.7 µM and an EC50 (Vaccinia virus [4]) of 46.2 µM.

In the case of `O=C1c2ccccc2-c2onc3c2C1C(NC1CCCCC1)C=C3NCCO` (stereo not drawn), the EC50 (Vaccinia virus [5]) is reported as 8.4 µM.

With `Nc1ncnc2c1ncn2COC(CO)CO` the EC50 (Cowpox virus [3]) was 3.5 µM.

For `CN(Cc1cnc2nc(N)nc(N)c2n1)c1ccc(C(=O)N[C@@H](CCC(=O)O)C(=O)O)cc1` [METHOTREXATE], the EC50 (Vaccinia virus [6]) was 2.2 µM and the EC50 (Vaccinia virus [7]) was 6.1 µM.

In the case of `CC1(C)/C(=N\NC(=O)c2ccc(Cl)cc2)[C@]2(C)CC[C@H]1C2`, the IC50 (Ectromelia virus) is reported as 8 µM, the IC50 (Cowpox virus [8]) is reported as 4.9 µM and the IC50 (Vaccinia virus [9]) is reported as 900 nM.

`Cc1cc(C2CCCCC2)n(O)c(=O)c1` [CICLOPIROX] showed an EC50 (Vaccinia virus [6]) of 5.8 µM and an EC50 (Vaccinia virus [7]) of 6.9 µM.

Molecule `C[C@@H]1C[C@@H]([C@H](O)CC2CC(=O)NC(=O)C2)C(=O)[C@@H](C)C1` [CYCLOHEXIMIDE] has an EC50 (Vaccinia virus [1]) of 2000 nM.

`CCCCCCCCCCCCCCCCOCCCOP1(=O)COCC(Cn2ccc(N)nc2=O)O1` (stereo not drawn) showed an EC50 (Vaccinia virus [4]) of 3.8 µM.

With `CC1(C)[C@@H]2CC[C@@]1(C)[C@@H](NC(=O)C1CCCCC1)C2` the IC50 (Ectromelia virus) was 6.2 µM, the IC50 (Cowpox virus [8]) was 14.4 µM and the IC50 (Vaccinia virus [9]) was 1400 nM.

`CC[C@H]1CN2CCc3cc(OC)c(OC)cc3[C@@H]2CC1C[C@H]1NCCc2cc(O)c(OC)cc21` (stereo partly drawn) showed an EC50 (Vaccinia virus [1]) of 125 nM.

`C[C@@H]1O[C@@H](O[C@H]2C[C@@H](O)[C@]3(CO)[C@H]4[C@H](O)C[C@]5(C)[C@@H](C6=CC(=O)OC6)CC[C@]5(O)[C@@H]4CC[C@]3(O)C2)[C@H](O)[C@H](O)[C@H]1O` [OUABAIN] showed an EC50 (Vaccinia virus [1]) of 250 nM.

For `O=C1N(Nc2ccc(C(F)(F)F)cc2)C(=O)C23C4C=CC5C4C4C(C=CC42)C153`, the CC50 (HEL) was over 100 µM and the IC50 (Vaccinia virus [10]) was 1200 nM.

`CC1(C)[C@@H]2CC[C@@]1(C)[C@@H](NC(=O)c1ccc(Cl)cc1)C2` gave an IC50 (Ectromelia virus) of 0.6 µM, an IC50 (Cowpox virus [8]) of 2.4 µM and an IC50 (Vaccinia virus [9]) of 240 nM.

Work on `N#CC1(c2ccc(NC(=O)c3cccnc3NCc3ccncc3)cc2)CCCC1` [RIVOCERANIB] yielded an EC50 (Vaccinia virus [6]) of 2.5 µM and an EC50 (Vaccinia virus [7]) of 2.7 µM.

`CC[C@H]1CN2CCc3cc(OC)c(OC)cc3[C@@H]2C[C@@H]1C[C@H]1NCCc2cc(OC)c(OC)cc21` [EMETINE] was tested, and the EC50 (Vaccinia virus [1]) was 250 nM.

For `O=C1N(Nc2ccc(Cl)c(C(F)(F)F)c2)C(=O)C23C4C=CC5C4C4C(C=CC42)C153`, the CC50 (HEL) was over 100 µM and the IC50 (Vaccinia virus [10]) was 800 nM.

`CC(=O)C1=C2C=CCCN2C(=O)NC1c1ccccc1Br` (stereo not drawn) gave an IC50 (Vaccinia virus [4]) of 300 nM.

`Cc1cccc(C)c1NC(=O)C(=O)NN1C(=O)C2C3C=CC(C4CC34)C2C1=O` (stereo not drawn) was tested, and the IC50 (Vaccinia virus [9]) was 1.28 µg/mL.

`CC(=O)C1=C2C=CCCN2C(=O)NC1c1cccc(F)c1` (stereo not drawn) showed an IC50 (Vaccinia virus [4]) of 100 nM.

`CCC(=O)N1CC(=O)Nc2ccc(Br)cc2C1c1ccccc1` (stereo not drawn) was tested, and the EC50 (Vaccinia virus [2]) was 3000 nM.

With `COc1c(C)c2c(c(O)c1C/C=C(\C)CCC(=O)OCCN1CCOCC1)C(=O)OC2` [MYCOPHENOLATE MOFETIL] the EC50 (Vaccinia virus [6]) was 0.2 µM and the EC50 (Vaccinia virus [7]) was 0.1 µM.

`CCOC(=O)c1c(CSc2ccccc2)n(C)c2cc(Br)c(O)c(CN(C)C)c12` [UMIFENOVIR] showed an EC50 (Vaccinia virus [6]) of 6.6 µM and an EC50 (Vaccinia virus [7]) of 9.7 µM.

`CC(=O)O[C@H]1C[C@H](O[C@H]2[C@@H](O)C[C@H](O[C@H]3[C@@H](O)C[C@H](O[C@H]4CC[C@@]5(C)[C@H](CC[C@@H]6[C@@H]5C[C@@H](O)[C@]5(C)[C@@H](C7=CC(=O)OC7)CC[C@]65O)C4)O[C@@H]3C)O[C@@H]2C)O[C@H](C)[C@H]1O[C@@H]1O[C@H](CO)[C@@H](O)[C@H](O)[C@H]1O` [LANATOSIDE C] showed an EC50 (Vaccinia virus [1]) of 500 nM.

With `C[C@H]1O[C@@H](O[C@H]2[C@@H](O)C[C@H](O[C@H]3[C@@H](O)C[C@H](O[C@H]4CC[C@@]5(C)[C@H](CC[C@@H]6[C@@H]5C[C@@H](O)[C@]5(C)[C@@H](C7=CC(=O)OC7)CC[C@]65O)C4)O[C@@H]3C)O[C@@H]2C)C[C@H](O)[C@@H]1O` [DIGOXIN] the EC50 (Vaccinia virus [1]) was 250 nM.

Work on `CC1(C)[C@@H]2CC[C@@]1(C)[C@H](NC(=O)c1ccc(Cl)cc1)C2` yielded an IC50 (Ectromelia virus) of 3.3 µM, an IC50 (Cowpox virus [8]) of 9.2 µM and an IC50 (Vaccinia virus [9]) of 600 nM.

`CC1(C)[C@@H]2CC[C@@]1(C)[C@H](NC(=O)c1ccc([N+](=O)[O-])cc1)C2` was tested, and the IC50 (Ectromelia virus) was 8 µM, the IC50 (Cowpox virus [8]) was 18.4 µM and the IC50 (Vaccinia virus [9]) was 900 nM.

With `C#C[C@]1(OC(=O)CCCCCC)CC[C@H]2[C@@H]3CCC4=CC(=O)CC[C@@H]4[C@H]3CC[C@@H]21` the EC50 (Vaccinia virus [6]) was 3.9 µM and the EC50 (Vaccinia virus [7]) was 2.7 µM.

Work on `CC1(C)[C@@H]2CC[C@@]1(C)/C(=N/NC(=O)C1CCC(F)(F)CC1)C2` yielded an IC50 (Ectromelia virus) of 7.8 µM, an IC50 (Cowpox virus [8]) of 8.3 µM and an IC50 (Vaccinia virus [9]) of 1800 nM.

Work on `CCCCCCCCCCCCCC[N+]12CC[N+](CCCC(=O)N[C@@H](Cc3c[nH]cn3)C(=O)O)(CC1)CC2` yielded an EC50 (Vaccinia virus [1]) of 400000 nM.

`COc1ccc(C[C@H]2NC[C@H](O)[C@H]2OC(C)=O)cc1` [ANISOMYCIN] showed an EC50 (Vaccinia virus [1]) of 250 nM.

Work on `CC1(C)[C@@H]2CC[C@@]1(C)[C@@H](NC(=O)c1ccc(Br)cc1)C2` yielded an IC50 (Ectromelia virus) of 0.7 µM, an IC50 (Cowpox virus [8]) of 1.9 µM and an IC50 (Vaccinia virus [9]) of 360 nM.

In the case of `O=C1N(Nc2ccc(Br)cc2)C(=O)C23C4C=CC5C4C4C(C=CC42)C153`, the CC50 (HEL) is reported as over 100 µM and the IC50 (Vaccinia virus [10]) is reported as 7300 nM.
